Patent US20070042014A1, “Combination of a serotonin reuptake inhibitor and loxapine” (H. Lundbeck A/S, priority 2003, published 2007)

Test system: 5-HT levels in ventral hippocampus
Assay: Microdialysis of brain serotonin (5-HT) levels in ventral hippocampus of rats
Type: in vivo, rat
Settings: loxapine alone; male Wistar rats
Description: Male albino rats of a Wistar-derived strain (285-320 g; Harlan, Zeist, The Netherlands) were used for the experiments. Upon surgery, rats were housed individually in plastic cages (35×35×40 cm), and had free access to food and water. Animals were kept on a 12 h light schedule (light on 7:00 a.m.). The experiments are concordant with the declarations of Helsinki and were approved by the animal care committee of the faculty of mathematics and natural science of the University of Groningen.
Preceding surgery rats were anaesthetised using isoflurane (O2/N2O; 300/300 ml/min). Lidocaine-HCl, 10% (m/v) was used for local anaesthesia.
Rats were allowed to recover for at least 24 h. […]
Twenty-μl microdialysate samples were injected via an autoinjector (CMA/200 refrigerated microsampler, CMA, Sweden) onto a 100×2.0 mm C18 Hypersil 3 μm column (Bester, Amstelveen, the Netherlands) and separated with a mobile phase consisting of 5 g/L di-ammoniumsulfate, 500 mg/L EDTA, 50 mg/L heptane sulphonic acid, 4% methanol v/v, and 30 μl/L of triethylamine, pH 4.65 at a flow of 0.4 ml/min (Shimadzu LC-10 AD). 5-HT was detected amperometrically at a glassy carbon electrode at 500 mV vs Ag/AgCl (Antec Leyden, Leiden, The Netherlands). […]

## CN1CCN(C2=Nc3ccccc3Oc3ccc(Cl)cc32)CC1 [loxapine]
  effect on 5-HT levels in ventral hippocampus (microdialysis, % of control level): no significant effect
